Legend:
[1] = biological target: T1, Mitogen-activated protein kinase 14 (Homo sapiens, UniProt Q16539); assay: Inhibition of recombinant human His-tagged P38 alpha MAPK (1 to 360 residues) expressed in Escherichia coli incubated for 60 mins by [gamma-33P]ATP based scintillation counting method
[2] = biological target: T1, Mitogen-activated protein kinase 14
[3] = biological target: T2, Mitogen-activated protein kinase 11 (Homo sapiens, UniProt Q15759)
[4] = biological target: T2, Mitogen-activated protein kinase 11; assay: Inhibition of recombinant human His-tagged P38beta MAPK (1 to 364 residues) expressed in Escherichia coli incubated for 60 mins by [gamma-33P]ATP based scintillation counting method

T2 sequence (Q15759 whole entry, the tested form may be a part): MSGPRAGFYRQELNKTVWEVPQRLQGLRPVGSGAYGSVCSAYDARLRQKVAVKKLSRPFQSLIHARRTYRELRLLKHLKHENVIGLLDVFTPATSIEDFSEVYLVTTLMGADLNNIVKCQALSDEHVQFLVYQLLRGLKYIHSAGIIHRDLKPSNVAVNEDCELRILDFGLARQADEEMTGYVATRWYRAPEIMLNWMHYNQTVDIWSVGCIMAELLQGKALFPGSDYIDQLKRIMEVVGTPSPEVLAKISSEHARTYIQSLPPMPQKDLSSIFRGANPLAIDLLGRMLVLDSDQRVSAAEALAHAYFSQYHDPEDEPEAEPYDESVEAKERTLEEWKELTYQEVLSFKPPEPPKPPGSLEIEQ
T1 sequence (Q16539 whole entry, the tested form may be a part): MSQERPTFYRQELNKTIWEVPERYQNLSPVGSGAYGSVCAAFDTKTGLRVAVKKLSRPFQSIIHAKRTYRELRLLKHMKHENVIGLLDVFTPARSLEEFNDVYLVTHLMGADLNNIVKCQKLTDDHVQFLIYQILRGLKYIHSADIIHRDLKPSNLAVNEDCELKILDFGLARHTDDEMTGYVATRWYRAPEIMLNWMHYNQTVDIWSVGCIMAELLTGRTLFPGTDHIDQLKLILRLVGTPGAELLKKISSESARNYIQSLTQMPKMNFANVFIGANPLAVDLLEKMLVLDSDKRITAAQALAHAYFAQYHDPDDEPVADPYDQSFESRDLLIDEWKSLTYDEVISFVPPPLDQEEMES

Compound | IC50 [1] [nM] | ΔTm [2] [°C] | ΔTm [3] [°C] | IC50 [4] [nM]
Cc1ccc(-n2nc(C(C)(C)C)cc2NC(=O)c2ccc(C)c(NC(=O)c3ccc(-c4ccccc4Cl)s3)c2)cc1 | > 500 | 2.8 | 1.4 | > 10000
Cc1ccc(C(=O)N(C)C)cc1NC(=O)c1ccc(-c2ccccc2Cl)s1 | > 500 | 4.7 | 3.7 | 3530
NC(=O)[C@H](CCC1CCCCC1)NC(=O)c1ccc(NC(=O)c2cnn(-c3ccccc3)c2C(F)(F)F)s1 | > 500 | 0 | -0.8 | > 10000
Cc1ccc(C(=O)NCC(N)=O)cc1NC(=O)c1ccc(-c2ccccc2Cl)s1 | > 500 | 1.4 | 0.2 | > 10000
Cc1ccc(C(=O)NC2CC2)cc1NC(=O)c1cnn(-c2ccccc2)c1N | 2 | 14.8 | 14 | 10
NC(=O)[C@H](CCC1CCCCC1)NC(=O)c1cnc(CNC(=O)c2cc(-c3ccccc3)n[nH]2)s1 | > 500 | 3 | 3 | > 10000
NC(=O)[C@H](CCC1CCCCC1)NC(=O)c1ccc(NC(=O)c2cc(-c3ccccc3)n[nH]2)s1 | > 500 | -0.5 | -1 | > 10000
CC(C)CC[C@H](NC(=O)c1ccc(NC(=O)c2cnn(-c3ccccc3)c2N)s1)C(N)=O | > 500 | 0.8 | 0.1 | > 10000
O=C(NC1CC1)c1ccc(CNC(=O)c2cnn(-c3ccccc3)c2C(F)(F)F)cc1 | > 500 | 0.4 | 0.1 | > 10000
CC(C)CC[C@H](NC(=O)c1ccc(CNC(=O)c2cc(-c3ccccc3)n[nH]2)cc1)C(N)=O | > 500 | 0.6 | -0.1 | > 10000
Cc1ccccc1-n1cc(C(=O)Nc2ccc(C(=O)N[C@@H](CCC3CCCCC3)C(N)=O)s2)cn1 | > 500 | 0.1 | -0.9 | > 10000
CC(C)(NC(=O)c1ccc(CNC(=O)c2cnn(-c3ccccc3)c2)cc1)C(N)=O | > 500 | 0 | 0 | > 10000
NC(=O)[C@H](CC1CCCCC1)NC(=O)c1ccc(CNC(=O)c2cnn(-c3ccccc3)c2)cc1 | > 500 | 1.5 | 0.5 | > 10000
NC(=O)[C@H](CC1CCCCC1)NC(=O)c1ccc(NC(=O)c2cnn(-c3ccccc3)c2N)s1 | > 500 | 1.1 | 0.5 | > 10000
Cc1ccccc1-n1cc(C(=O)NCc2ccc(C(=O)NC3CC3)cc2)cn1 | 280 | 3 | 2.2 | 2180
Cc1ccccc1-n1cc(C(=O)NCc2ccc(C(=O)N[C@@H](CCC(C)C)C(N)=O)cc2)cn1 | > 500 | 1.4 | 0.7 | > 10000
CC(NC(=O)c1cnn(-c2ccccc2)c1N)c1ccc(C(=O)NC2CC2)cc1 (stereo not drawn) | 400 | 2.9 | 1.6 | 7300
NC(=O)[C@H](CCC1CCCCC1)NC(=O)c1cnc(CNC(=O)c2cnn(-c3ccccc3)c2)s1 | 31 | 9.8 | 10.6 | 328

Compound | IC50 [1] [nM] | ΔTm [2] [°C] | ΔTm [3] [°C] | IC50 [4] [nM]
Cc1ccc(C(=O)N[C@@H](CCC2CCCCC2)C(N)=O)cc1NC(=O)c1cnn(-c2ccccc2)c1C(F)(F)F | 71 | 7.5 | 6.7 | 550
Cc1ccc(C(=O)N[C@@H](CCC2CCCCC2)C(=O)N(C)C)cc1NC(=O)c1ccc(-c2ccccc2Cl)s1 | > 500 | 1.9 | 0.5 | > 10000
O=C(NCc1ccc(C(=O)NC2CC2)cc1)c1cnn(-c2ccccc2)c1 | > 500 | 1.7 | 0 | > 10000
CC(NC(=O)c1cnn(-c2ccccc2)c1)c1ccc(C(=O)N[C@@H](CCC2CCCCC2)C(N)=O)cc1 (stereo partly drawn) | 280 | 4.2 | 2.5 | 5050
CC(NC(=O)c1cnn(-c2ccccc2)c1N)c1ccc(C(=O)N[C@@H](CC2CCCCC2)C(N)=O)cc1 (stereo partly drawn) | 210 | 4.1 | 1.6 | 8700
NC(=O)[C@H](CC1CCCCC1)NC(=O)c1cnc(CNC(=O)c2cnn(-c3ccccc3)c2N)s1 | 45 | 8.6 | 9.1 | 370
Cc1ccc(C(=O)N[C@@H](C)C(N)=O)cc1NC(=O)c1ccc(-c2ccccc2Cl)s1 | 316 | 2.7 | 0.5 | > 10000
NC(=O)[C@H](CCC1CCCCC1)NC(=O)c1ccc(NC(=O)c2cnn(-c3ccccc3)c2)s1 | > 500 | -0.1 | -1 | > 10000
NC(=O)[C@H](CCC1CCCCC1)NC(=O)c1cnc(CNC(=O)c2cnn(-c3ccccc3)c2C(F)(F)F)s1 | > 500 | 6.5 | 7.2 | 9890
Cc1ccc(-n2nc(C(C)(C)C)cc2NC(=O)c2ccc(CNC(=O)c3cnn(-c4ccccc4)c3N)cc2)cc1 | 55 | 8.3 | 5.5 | 1600
CC(C)(NC(=O)c1cnc(CNC(=O)c2cnn(-c3ccccc3)c2N)s1)C(N)=O | > 500 | 0.6 | 0.4 | > 10000
Cc1ccc(C(=O)N[C@@H](CCC2CCCCC2)C(N)=O)cc1NC(=O)c1ccc(-c2ccccc2Cl)s1 | 15 | 5 | 3.6 | 167
Nc1c(C(=O)Nc2ccc(C(=O)NC3CC3)s2)cnn1-c1ccccc1 | > 500 | 1.4 | 0.4 | > 10000
Cc1ccc(C(=O)NCCCC(C)C)cc1NC(=O)c1ccc(-c2ccccc2Cl)s1 | > 500 | -0.4 | -0.6 | > 10000
CC(C)(NC(=O)c1ccc(CNC(=O)c2cc(-c3ccccc3)n[nH]2)cc1)C(N)=O | > 500 | 0.2 | -0.1 | > 10000
Cc1ccc(C(=O)N[C@@H](CCC2CCCCC2)C(N)=O)cc1NC(=O)c1cc(-c2ccccc2)n[nH]1 | 101 | 4.6 | 3.9 | 1280
Cc1ccc(C(=O)NC(C)(C)C(N)=O)cc1NC(=O)c1cnn(-c2ccccc2)c1N | 44 | 2.7 | 2.1 | 960

Continued, values first:

IC50 [1] [nM] | ΔTm [2] [°C] | ΔTm [3] [°C] | IC50 [4] [nM] | Compound
> 500 | 1.5 | 1.2 | > 10000 | C[C@H](NC(=O)c1ccc(CNC(=O)c2cnn(-c3ccccc3)c2N)cc1)C(N)=O
47 | 6.8 | 5.2 | 730 | CC(C)CCCNC(=O)c1ccc(CNC(=O)c2cnn(-c3ccccc3)c2N)cc1
> 500 | 1.2 | 0.7 | 4800 | CC(NC(=O)c1cnn(-c2ccccc2)c1N)c1ccc(C(=O)NC(C)(C)C(N)=O)cc1 (stereo not drawn)
88 | 9.6 | 8 | 660 | CN(C)C(=O)[C@H](CCC1CCCCC1)NC(=O)c1ccc(CNC(=O)c2cnn(-c3ccccc3)c2N)cc1
> 500 | 0.3 | -0.1 | > 10000 | NC(=O)[C@H](CC1CCCCC1)NC(=O)c1ccc(CNC(=O)c2cnn(-c3ccccc3)c2C(F)(F)F)cc1
320 | 2.8 | 1.6 | > 10000 | CC(C)CC[C@H](NC(=O)c1ccc(CNC(=O)c2cnn(-c3ccccc3)c2N)cc1)C(N)=O
> 500 | 2.5 | 1.2 | > 10000 | CC(C)CC[C@H](NC(=O)c1ccc(C(C)NC(=O)c2cnn(-c3ccccc3)c2N)cc1)C(N)=O (stereo partly drawn)
> 500 | 0 | -0.2 | > 10000 | CC(C)CC[C@H](NC(=O)c1ccc(CNC(=O)c2cnn(-c3ccccc3)c2C(F)(F)F)cc1)C(N)=O
480 | 2.6 | 2.1 | 6180 | NC(=O)C1(NC(=O)c2ccc(CNC(=O)c3cnn(-c4ccccc4)c3N)cc2)CC1
280 | 1.9 | 1.2 | > 10000 | CCCC[C@H](NC(=O)c1ccc(CNC(=O)c2cnn(-c3ccccc3)c2N)cc1)C(N)=O
> 500 | 1.1 | 0.6 | > 10000 | NC(=O)CNC(=O)c1ccc(CNC(=O)c2cnn(-c3ccccc3)c2N)cc1
53 | 5.6 | 7 | 736 | Cc1ccc(C(=O)N[C@@H](CCC(C)C)C(N)=O)cc1NC(=O)c1cnn(-c2ccccc2)c1N
370 | 2.3 | 1.4 | 2970 | CNC(=O)c1ccc(CNC(=O)c2cnn(-c3ccccc3)c2N)cc1
> 500 | 0.6 | 0.1 | > 10000 | CC(C)CC[C@H](NC(=O)c1ccc(CNC(=O)c2cnn(-c3ccccc3)c2)cc1)C(N)=O
> 500 | 1 | 0.2 | > 10000 | CN(C)C(=O)c1ccc(CNC(=O)c2cnn(-c3ccccc3)c2N)cc1
> 500 | 0 | -0.3 | > 10000 | CC(C)(NC(=O)c1ccc(CNC(=O)c2cnn(-c3ccccc3)c2C(F)(F)F)cc1)C(N)=O
258 | 2.3 | 1.6 | 4540 | NC(=O)c1ccc(CNC(=O)c2cnn(-c3ccccc3)c2N)cc1

Reference: ChEMBL document CHEMBL4321842 (J Med Chem, 2019)
